In patent US20240409585A1, “MACROCYCLIC IMMUNOMODULATORS” (priority 2021, published 2024):
Numbered stars: 1 amine (or outer) side, 2 acyl side, 3 side chain; on linkers, the order of the positions; unused ones are H or OH. Bridge positions count the residues as written; N and C are the ends. Square brackets hold non-standard residues; d marks the D form. Peptide text beside a SMILES is read from it. * marks the point of attachment. X35 = O=C([C@H](Cc1ccc(-c2cccc(F)c2)cc1)N[*:1])[*:2]; dPhe(4-NO2) = N[C@H](Cc1ccc([N+](=O)[O-])cc1)C(=O)O; Phe(4-COOH) = N[C@@H](Cc1ccc(C(=O)O)cc1)C(=O)O; Bip = N[C@@H](Cc1ccc(-c2ccccc2)cc1)C(=O)O; Phe(3-Me) = Cc1cccc(C[C@H](N)C(=O)O)c1; Phe(4-F) = N[C@@H](Cc1ccc(F)cc1)C(=O)O; Bta = N[C@@H](Cc1csc2ccccc12)C(=O)O; Val(3-OH) = CC(C)(O)[C@H](N)C(=O)O; 3Pal = N[C@@H](Cc1cccnc1)C(=O)O; 4Pal = N[C@@H](Cc1ccncc1)C(=O)O; d3Pal = N[C@H](Cc1cccnc1)C(=O)O; Cha = N[C@@H](CC1CCCCC1)C(=O)O; Cit = NC(=O)NCCC[C@H](N)C(=O)O; Carboxymethyl = O=C(O)C*; NMeA = CN[C@@H](C)C(=O)O; Dab = NCC[C@H](N)C(=O)O; Dap = NC[C@H](N)C(=O)O

These molecules were tested against T1, PE-labeled human PD-L1-Ig binding to Jurkat cell line over-expressing human PD-1 (Jurkat-PD-1) (Homo sapiens, UniProt Q15116) (assay: Jurkat-PD-1 Cell Binding High-Content Screening Assay (CBA): Method 1). Conditions: Jurkat-hPD-1 cells, PE-labeled PD-L1-Ig 20 nM final; read-out: Jurkat HPDL1 PD1 IC50 (uM) (Method 1).
T1 construct: expressed in transfected cells; host or cells: Jurkat
T1 sequence (Q15116 25-288): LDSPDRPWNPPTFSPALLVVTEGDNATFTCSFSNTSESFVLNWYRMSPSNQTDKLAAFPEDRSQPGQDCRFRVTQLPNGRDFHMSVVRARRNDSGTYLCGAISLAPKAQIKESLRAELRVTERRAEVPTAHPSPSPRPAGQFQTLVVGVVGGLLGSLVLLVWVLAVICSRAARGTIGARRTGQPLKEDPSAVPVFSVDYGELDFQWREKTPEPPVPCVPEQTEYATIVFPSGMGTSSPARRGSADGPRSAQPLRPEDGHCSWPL

Point of comparison: `Cc1cccc(C[C@@H]2NC(=O)[C@H](CC(=O)O)NC(=O)[C@H](Cc3ccc(C(=O)O)cc3)NC(=O)[C@H](Cc3ccc(F)cc3)NC(=O)CSC[C@@H](C(=O)N[C@@H](CCN)C(N)=O)NC(=O)[C@H](CCC(=O)O)NC(=O)[C@H](C(C)C)NC(=O)[C@H](CC3CCCCC3)NC(=O)[C@H](CCN)NC(=O)[C@@H](CC(C)C)NC(=O)[C@H](C)N(C)C(=O)[C@H](Cc3ccc(C(=O)O)cc3)NC(=O)[C@H](Cc3ccc(-c4ccccc4)cc3)NC(=O)[C@H](Cc3ccc(C(=O)O)cc3)NC2=O)c1` [Compound 2208] ({CH2CO}-[Phe(4-F)][Phe(4-COOH)]D[Phe(3-Me)][Phe(4-COOH)][Bip][Phe(4-COOH)][NMeA][dL][Dab][Cha]VEC[Dab]-NH2; thioether N-14), IC50 0.01 µM. Against it:
- CC(C)C[C@@H]1NC(=O)[C@H](Cc2c[nH]c3ccccc23)NC(=O)[C@H](CC(=O)O)NC(=O)[C@H](Cc2ccc(C(=O)O)cc2)NC(=O)[C@H](Cc2ccc(OCC(=O)O)cc2)NC(=O)CSC[C@@H](C(=O)N[C@@H](CC(N)=O)C(N)=O)NC(=O)[C@H](CO)NC(=O)[C@H](C(C)(C)O)NC(=O)[C@H](CC2CCCCC2)NC(=O)[C@H](CCN)NC(=O)[C@@H](CC(C)C)NC(=O)[C@H](C)N(C)C(=O)[C@H](C(C)C)NC(=O)[C@H](Cc2ccc(-c3ccccc3)cc2)NC1=O [Compound 1915] ({CH2CO}-Y(Carboxymethyl)[Phe(4-COOH)]DWL[Bip]V[NMeA][dL][Dab][Cha][Val(3-OH)]SCN-NH2; thioether N-14) — the same, 0.01 µM
- CC[C@H](C)[C@@H]1NC(=O)[C@H](Cc2ccc(-c3ccccc3)cc2)NC(=O)[C@H](C(C)C)NC(=O)[C@H](Cc2c[nH]c3ccccc23)NC(=O)[C@H](CC(=O)O)NC(=O)[C@H](Cc2ccc(C(=O)O)cc2)NC(=O)[C@H](CN)NC(=O)CSC[C@@H](C(=O)N[C@@H](C)C(N)=O)NC(=O)[C@H]([C@@H](C)O)NC(=O)[C@H](C(C)C)NC(=O)[C@H](CC(C)C)NC(=O)[C@H](CCN)NC(=O)[C@@H](CC(C)C)NC(=O)[C@H](C)N(C)C1=O [Compound 1412] ({CH2CO}-[Dap][Phe(4-COOH)]DWV[Bip]I[NMeA][dL][Dab]LVTCA-NH2; thioether N-14) — 5-fold higher, 0.05 µM
- CC(C)C[C@@H]1NC(=O)[C@H](Cc2c[nH]c3ccccc23)NC(=O)[C@H](CC(=O)O)NC(=O)[C@H](Cc2ccc(O)cc2)NC(=O)[C@H](Cc2ccccc2)NC(=O)CSC[C@@H](C(=O)N[C@@H](C)C(N)=O)NC(=O)[C@H](CO)NC(=O)[C@H](C(C)C)NC(=O)[C@H](CC(C)C)NC(=O)[C@H](CC(N)=O)NC(=O)[C@@H](CC(C)C)NC(=O)[C@H](C)N(C)C(=O)[C@H](C(C)C)NC(=O)[C@H](Cc2ccc(-c3ccccc3)cc2)NC1=O [Compound 1745] ({CH2CO}-FYDWL[Bip]V[NMeA][dL]NLVSCA-NH2; thioether N-14) — 2-fold higher, 0.02 µM
- CC(C)C[C@@H]1NC(=O)[C@H](Cc2c[nH]c3ccccc23)NC(=O)[C@H](CC(=O)O)NC(=O)[C@H](Cc2ccc(O)cc2)NC(=O)[C@H](Cc2ccccc2)NC(=O)CSC[C@@H](C(=O)N[C@@H](C)C(N)=O)NC(=O)[C@H](CO)NC(=O)[C@H](C(C)C)NC(=O)[C@H](CC(C)C)NC(=O)[C@H](CC(N)=O)NC(=O)[C@@H](C)NC(=O)[C@H](C)N(C)C(=O)[C@H](C(C)C)NC(=O)[C@H](Cc2ccc(-c3cccc(F)c3)cc2)NC1=O [Compound 1759] ({CH2CO}-FYDWL[X35]V[NMeA][dA]NLVSCA-NH2; thioether N-14) — 3-fold higher, 0.03 µM
- CC(C)C[C@@H]1NC(=O)[C@H](CCCNC(=N)N)NC(=O)[C@@H](Cc2ccc([N+](=O)[O-])cc2)NC(=O)[C@H](C)N(C)C(=O)[C@H](CCCNC(=N)N)NC(=O)[C@H](Cc2ccc(-c3ccccc3)cc2)NC(=O)[C@H](C(C)C)NC(=O)[C@H](Cc2c[nH]c3ccccc23)NC(=O)[C@H](CC(=O)O)NC(=O)[C@H](Cc2ccc(O)cc2)NC(=O)[C@H](Cc2ccccc2)NC(=O)CSC[C@@H](C(=O)N[C@@H](C)C(N)=O)NC(=O)[C@H]([C@@H](C)O)NC(=O)[C@H](C(C)C)NC1=O [Compound 1102] ({CH2CO}-FYDWV[Bip]R[NMeA][dPhe(4-NO2)]RLVTCA-NH2; thioether N-14) — 30-fold higher, 0.3 µM
- CC(C)C[C@@H]1NC(=O)[C@H](Cc2c[nH]c3ccccc23)NC(=O)[C@H](CC(=O)O)NC(=O)[C@H](Cc2ccncc2)NC(=O)[C@H](Cc2ccc(OCC(=O)O)cc2)NC(=O)CSC[C@@H](C(=O)N[C@@H](CCN)C(N)=O)NC(=O)[C@H](CO)NC(=O)[C@H](C(C)C)NC(=O)[C@H](CC2CCCCC2)NC(=O)[C@H](CCN)NC(=O)[C@@H](CC(C)C)NC(=O)[C@H](C)N(C)C(=O)[C@H](Cc2ccc(O)cc2)NC(=O)[C@H](Cc2ccc(-c3ccccc3)cc2)NC1=O [Compound 1908] ({CH2CO}-Y(Carboxymethyl)[4Pal]DWL[Bip]Y[NMeA][dL][Dab][Cha]VSC[Dab]-NH2; thioether N-14) — 4-fold higher, 0.04 µM
- CC(C)C[C@@H]1NC(=O)[C@H](Cc2c[nH]c3ccccc23)NC(=O)[C@H](CC(=O)O)NC(=O)[C@H](Cc2ccc(O)cc2)NC(=O)[C@H](CC(N)=O)NC(=O)CSC[C@@H](C(=O)N[C@@H](C)C(N)=O)NC(=O)[C@H]([C@@H](C)O)NC(=O)[C@H](C(C)C)NC(=O)[C@H](CC(C)C)NC(=O)[C@H](CCCNC(=N)N)NC(=O)[C@@H](CC(C)C)NC(=O)[C@H](C)N(C)C(=O)[C@H](CCCNC(=N)N)NC(=O)[C@H](Cc2ccc(-c3ccccc3)cc2)NC1=O [Compound 1215] ({CH2CO}-NYDWL[Bip]R[NMeA][dL]RLVTCA-NH2; thioether N-14) — 8-fold higher, 0.08 µM
- CC(C)C[C@@H]1NC(=O)[C@H](Cc2c[nH]c3ccccc23)NC(=O)[C@H](CC(=O)O)NC(=O)[C@H](Cc2ccc(C(=O)O)cc2)NC(=O)[C@H](Cc2ccc(OCC(=O)O)cc2)NC(=O)CSC[C@@H](C(=O)N[C@@H](CCN)C(N)=O)NC(=O)[C@H](CCC(=O)O)NC(=O)[C@H](C(C)(C)O)NC(=O)[C@H](CC2CCCCC2)NC(=O)[C@H](CCN)NC(=O)[C@@H](CC(C)C)NC(=O)[C@H](C)N(C)C(=O)[C@H](C(C)(C)O)NC(=O)[C@H](Cc2ccc(-c3ccccc3)cc2)NC1=O [Compound 1717] ({CH2CO}-Y(Carboxymethyl)[Phe(4-COOH)]DWL[Bip][Val(3-OH)][NMeA][dL][Dab][Cha][Val(3-OH)]EC[Dab]-NH2; thioether N-14) — 2-fold higher, 0.02 µM
- CC(C)C[C@@H]1NC(=O)[C@H](Cc2c[nH]c3ccccc23)NC(=O)[C@H](CC(=O)O)NC(=O)[C@H](Cc2ccc(O)cc2)NC(=O)[C@H](Cc2ccccc2)NC(=O)CSC[C@@H](C(=O)NCC(N)=O)NC(=O)[C@H](CO)NC(=O)[C@H](C(C)C)NC(=O)[C@H](CC(C)C)NC(=O)[C@H](CC(N)=O)NC(=O)[C@H](CO)NC(=O)[C@H](C)N(C)C(=O)[C@H](C(C)C)NC(=O)[C@H](Cc2ccc(-c3ccccc3)cc2)NC1=O [Compound 1007] ({CH2CO}-FYDWL[Bip]V[NMeA]SNLVSCG-NH2; thioether N-14) — 26-fold higher, 0.26 µM
- CC(C)C[C@@H]1NC(=O)[C@H](CCCNC(=N)N)NC(=O)[C@H](Cc2csc3ccccc23)NC(=O)[C@H](C)N(C)C(=O)[C@H](CCCNC(=N)N)NC(=O)[C@H](Cc2ccc(-c3ccccc3)cc2)NC(=O)[C@H](C(C)C)NC(=O)[C@H](Cc2c[nH]c3ccccc23)NC(=O)[C@H](CC(=O)O)NC(=O)[C@H](Cc2ccc(O)cc2)NC(=O)[C@H](CCC(N)=O)NC(=O)CSC[C@@H](C(=O)NCC(N)=O)NC(=O)[C@H](CO)NC(=O)[C@H](C(C)C)NC1=O [Compound 1028] ({CH2CO}-QYDWV[Bip]R[NMeA][Bta]RLVSCG-NH2; thioether N-14) — 11-fold higher, 0.11 µM
- CC(C)C[C@@H]1NC(=O)[C@H](CCCNC(=N)N)NC(=O)[C@@H](Cc2cccnc2)NC(=O)[C@H](C)N(C)C(=O)[C@H](CCCNC(=N)N)NC(=O)[C@H](Cc2ccc(-c3ccccc3)cc2)NC(=O)[C@H](C(C)C)NC(=O)[C@H](Cc2c[nH]c3ccccc23)NC(=O)[C@H](CC(=O)O)NC(=O)[C@H](Cc2ccc(O)cc2)NC(=O)[C@H](Cc2ccccc2)NC(=O)CSC[C@@H](C(=O)N[C@@H](C)C(N)=O)NC(=O)[C@H]([C@@H](C)O)NC(=O)[C@H](C(C)C)NC1=O [Compound 1104] ({CH2CO}-FYDWV[Bip]R[NMeA][d3Pal]RLVTCA-NH2; thioether N-14) — 13-fold higher, 0.13 µM
- CC(C)C[C@@H]1NC(=O)[C@H](CCN)NC(=O)[C@@H](CC(C)C)NC(=O)[C@H](C)N(C)C(=O)[C@H](Cc2cnc[nH]2)NC(=O)[C@H](Cc2ccc(-c3ccccc3)cc2)NC(=O)[C@H](C(C)C)NC(=O)[C@H](Cc2c[nH]c3ccccc23)NC(=O)[C@H](CC(=O)O)NC(=O)[C@H](Cc2ccc(O)cc2)NC(=O)[C@H](Cc2cccnc2)NC(=O)CSC[C@@H](C(=O)N[C@@H](C)C(N)=O)NC(=O)[C@H]([C@@H](C)O)NC(=O)[C@H](C(C)C)NC1=O [Compound 1374] ({CH2CO}-[3Pal]YDWV[Bip]H[NMeA][dL][Dab]LVTCA-NH2; thioether N-14) — 4-fold higher, 0.04 µM
- Cc1cccc(C[C@@H]2NC(=O)[C@H](CC(=O)O)NC(=O)[C@H](Cc3ccc(C(=O)O)cc3)NC(=O)[C@H](Cc3ccc(OCC(=O)O)cc3)NC(=O)CSC[C@@H](C(N)=O)NC(=O)[C@H](CO)NC(=O)[C@H](C(C)C)NC(=O)[C@H](CC(C)C)NC(=O)[C@H](CC(N)=O)NC(=O)[C@@H](CC(C)C)NC(=O)[C@H](C)N(C)C(=O)[C@H](C(C)C)NC(=O)[C@H](Cc3ccc(-c4ccccc4)cc3)NC(=O)[C@H](CC(C)C)NC2=O)c1 [Compound 1596] ({CH2CO}-Y(Carboxymethyl)[Phe(4-COOH)]D[Phe(3-Me)]L[Bip]V[NMeA][dL]NLVSC-NH2; thioether N-14) — 2-fold higher, 0.02 µM
- CC(C)C[C@@H]1NC(=O)[C@H](CCN)NC(=O)[C@@H](CC(C)C)NC(=O)[C@H](C)N(C)C(=O)[C@H](CCCNC(N)=O)NC(=O)[C@H](Cc2ccc(-c3ccccc3)cc2)NC(=O)[C@H](C(C)C)NC(=O)[C@H](Cc2c[nH]c3ccccc23)NC(=O)[C@H](CC(=O)O)NC(=O)[C@H](Cc2ccc(C(=O)O)cc2)NC(=O)[C@H](Cc2ccc(OCC(=O)O)cc2)NC(=O)CSC[C@@H](C(=O)N[C@@H](C)C(N)=O)NC(=O)[C@H]([C@@H](C)O)NC(=O)[C@H](C(C)C)NC1=O [Compound 1573] ({CH2CO}-Y(Carboxymethyl)[Phe(4-COOH)]DWV[Bip][Cit][NMeA][dL][Dab]LVTCA-NH2; thioether N-14) — 5-fold higher, 0.05 µM
